Measurements: patent EP1262190A1, “RFRP-CONTAINING PROLACTIN SECRETION REGULATORY AGENT” (Takeda Chemical Industries, Ltd., priority 2000, dated 2001)
Where no end group is shown, it is not given here.

Assays:
[1] = target: T1, r0T7T022L receptor-expressing CHO cells (Rattus norvegicus, UniProt Q9EP86); assay: Reaction of receptor-expressing CHO cells with peptides in the cytosensor (acidification rate); type: cell-based; settings: peptide exposure for 7 minutes and 2 seconds, FIG. 8
T1 construct: expressed in transfected cells; host or cells: CHO cells
T1 sequence (Q9EP86 whole entry): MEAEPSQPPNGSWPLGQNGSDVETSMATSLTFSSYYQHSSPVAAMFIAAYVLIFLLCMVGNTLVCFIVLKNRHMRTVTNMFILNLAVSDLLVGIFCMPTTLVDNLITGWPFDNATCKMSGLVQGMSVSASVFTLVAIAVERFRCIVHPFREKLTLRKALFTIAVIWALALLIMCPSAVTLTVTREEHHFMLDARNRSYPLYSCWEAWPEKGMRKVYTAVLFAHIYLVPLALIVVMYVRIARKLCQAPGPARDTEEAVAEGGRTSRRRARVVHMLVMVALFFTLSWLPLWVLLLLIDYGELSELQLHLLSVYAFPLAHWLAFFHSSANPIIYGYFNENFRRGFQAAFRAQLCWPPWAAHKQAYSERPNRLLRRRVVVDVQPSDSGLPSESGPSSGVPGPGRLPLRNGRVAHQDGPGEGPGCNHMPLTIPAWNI
Description: The r0T7T022L receptor-expressing CHO cells obtained in REFERENCE EXAMPLE 7 (2) above were inoculated on capsules for cytosensor in 2.7 x 10^5 cells/capsule. After culturing overnight, the cytosensor was mounted to a work station for the cytosensor. A medium for assay (low buffered RMPI1640 medium supplemented with 0.1% bovine serum albumin), that was set in the flow path of the cytosensor, was supplied to the cells in a pump cycle of ON (80 seconds) and OFF (40 seconds). A rate of change in […] from 8 to 30 seconds after the pump stopped was calculated as an acidification rate. A change of the acidification rate with passage of time was monitored; when stable reading was obtained, the flow path was switched to expose each peptide to the cells for 7 minutes and 2 seconds. In the acidification rate of each well, the data for 3 cycles immediately before the peptide exposure was made 100% for standardization.

[2] = target: T2, Human 0T7T022 receptor-expressing CHO cells (Homo sapiens, UniProt Q9GZQ6); assay: Agonist activity of RF amide peptides: inhibition of forskolin-increased cAMP in human 0T7T022 receptor-expressing CHO cells; type: cell-based; settings: 1 µM forskolin, 37°C for 30 minutes, FIG. 14
T2 construct: expressed in transfected cells; host or cells: CHO cells
T2 sequence (Q9GZQ6 whole entry): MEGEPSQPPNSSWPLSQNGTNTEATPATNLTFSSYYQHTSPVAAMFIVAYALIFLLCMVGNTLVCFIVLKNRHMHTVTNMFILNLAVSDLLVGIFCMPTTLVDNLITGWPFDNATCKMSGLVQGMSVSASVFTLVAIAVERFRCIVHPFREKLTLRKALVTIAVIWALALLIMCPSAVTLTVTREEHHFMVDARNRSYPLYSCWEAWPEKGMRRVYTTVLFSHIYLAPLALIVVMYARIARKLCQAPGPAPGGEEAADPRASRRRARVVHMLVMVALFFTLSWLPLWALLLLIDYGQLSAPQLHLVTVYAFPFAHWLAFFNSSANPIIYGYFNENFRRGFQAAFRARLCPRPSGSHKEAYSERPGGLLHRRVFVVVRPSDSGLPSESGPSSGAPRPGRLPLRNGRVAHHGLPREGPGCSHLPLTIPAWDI
Description: Human 0T7T022 receptor-expressing CHO cells obtained by a modification of the method described in WO 00/29441 were inoculated on a 24-well plate in a concentration of 3 x 10^5 cells/well. After incubation overnight, the cells were rinsed with Hanks' buffer (HBSS) supplemented with 0.05% BSA and 0.2 mM IBMX, and then preincubated at 37°C for 30 minutes in the same buffer. Next, the buffer was exchanged by Hanks' buffer (HBSS) supplemented with 0.05% BSA and 0.2 mM IBMX, or HBSS further added with 1 µM forskolin only, or HBSS added with 1 µM forskolin and peptide of various concentrations, followed by incubation at 37°C for 30 minutes. After completion of the incubation, cAMP in the cells of each well was extracted and quantified according to the method of cAMP EIA Kit (Amersham Inc.). An inhibition rate of the increased cAMP level in the cells by the forskolin treatment was calculated with the respective concentrations of the peptide.

[3] = tested on: pituitary hormone level in plasma; assay: Effect of administration into the third ventricle on pituitary hormone level in plasma (radioimmunoassay); type: in vivo, Wistar rats; settings: 10 nmols into the third ventricle; for plasma prolactin level: vs PBS control
[4] = target: T2, Human 0T7T022 receptor-expressing CHO cells; assay: Effect of pertussis toxin on activation of human 0T7T022 receptor by RFRP peptide (cAMP production inhibition); type: cell-based; settings: 0.1 µM peptide, 1 µM forskolin, cells treated with 100 ng/ml pertussis toxin, FIG. 15
Description: Human 0T7T022 receptor-expressing CHO cells obtained in EXAMPLE 8 were inoculated on a 24-well plate in a concentration of 1 x 10^5 cells/well. After culturing overnight, the medium was exchanged by a medium added with 100 ng/ml pertussis toxin (Sigma, Inc.) or with a control medium followed by further incubation overnight. The cells were rinsed with Hanks' buffer (HBSS) supplemented with 0.05% BSA and 0.2 mM IBMX and then preincubated at 37°C for 30 minutes in the same buffer. Next, the cells were incubated at 37°C for 30 minutes after the buffer was exchanged by Hanks' buffer alone (HBSS) supplemented with 0.05% BSA and 0.2 mM IBMX (black column), or by HBSS further added with 1 µM forskolin only (white column), or by HBSS added with 1 µM forskolin and 0.1 µM RFRP-1-12 (peptide having the 81 (Met) to 92 (Phe) amino acid sequence in SEQ ID NO:1) (hatched column). After completion of the incubation, cAMP in the cells of each well was extracted and quantified according to the method of cAMP EIA Kit (Amersham, Inc.).

## CC(C)C[C@H](NC(=O)[C@H](CC(N)=O)NC(=O)[C@@H]1CCCN1C(=O)[C@@H](N)C(C)C)C(=O)N1CCC[C@H]1C(=O)N[C@@H](CCC(N)=O)C(=O)N[C@@H](CCCNC(=N)N)C(=O)N[C@@H](Cc1ccccc1)C(N)=O
[1]
  reaction of r0T7T022L-expressing CHO cells (acidification rate): strongly showed dose-dependent reaction

## Asn-Pro-Phe-Phe [NPFF, reference compound]
[2]
  ED50 levels (inhibition rate of the increased cAMP level in the cells by the forskolin treatment): 140 nM

## MPHSFANLPLRF-NH2
[1]
  reaction of r0T7T022L-expressing CHO cells (acidification rate): strongly showed dose-dependent reaction
[3]
  level of ACTH in plasma: none showed any significant change
  level of GH in plasma: none showed any significant change
  level of LH in plasma: none showed any significant change
  level of TSH in plasma: none showed any significant change
[3]; 10 minutes after administration
  plasma prolactin level: tended to increase
[3]; 20 minutes after administration
  plasma prolactin level: significantly increased
[3]; 30 minutes after administration
  plasma prolactin level: significantly increased
[3]; 40 minutes after administration
  plasma prolactin level: significantly increased
[3]; 60 minutes after administration
  plasma prolactin level: a significant difference was noted
[4]
  cAMP production inhibiting activity: lost

## Pro-Gln-Arg-Phe-NH2 (PQRF-NH2) [PQRFamide, reference compound]
[2]
  ED50 levels (inhibition rate of the increased cAMP level in the cells by the forskolin treatment): ≥ 1000 nM

## hRFRP-1-37: peptide having the 56 (Ser) to 92 (Phe) amino acid sequence in SEQ ID NO:1 (SLNFEELKDWGPKNVIKMSTPAVNKMPHSFANLPLRF; UniProt Q9HCQ7 56-92, looked up, fragment)
[2]
  ED50 levels (inhibition rate of the increased cAMP level in the cells by the forskolin treatment): 21 nM

## rRFRP-1-37: peptide having the 58 (Ser) to 94 (Phe) amino acid sequence in SEQ ID NO:50 (SVTFQELKDWGAKKDIKMSPAPANKVPHSAANLPLRF; UniProt Q9ESQ9 58-94, looked up, fragment)
[2]
  ED50 levels (inhibition rate of the increased cAMP level in the cells by the forskolin treatment): 30 nM
